Laboratory results reported in paper PMC5218480 (PLoS ONE, 2017).

Test system: MV-4-11 cells
Test: Gene expression microarray analysis (Affymetrix PrimeView) and GSEA
Assay type: cell-based, human
Set-up: RFU PODN (11730768_x_at) / Fold change /veh PODN (11730768_x_at) / RFU LINC00158 (11744669_a_at) / Fold change /veh LINC00158 (11744669_a_at) / RFU DUSP10 (11751237_a_at) / Fold change /veh DUSP10 (11751237_a_at) / RFU ID3 (11757404_x_at) / Fold change /veh ID3 (11757404_x_at) / RFU PLEKHG5 (11737974_s_at) / Fold change /veh PLEKHG5 (11737974_s_at) / RFU LRRC4B (11730491_at) / Fold change /veh LRRC4B (11730491_at) / RFU GIMAP4 (11747438_a_at) / Fold change /veh GIMAP4 (11747438_a_at) / RFU KRT8 (11758183_x_at) / Fold change /veh KRT8 (11758183_x_at) / RFU CNN1 (11734310_a_at) / Fold change /veh CNN1 (11734310_a_at) / RFU VPS37D (11726825_at) / Fold change /veh VPS37D (11726825_at) / RFU C10orf10 (11716522_x_at) / Fold change /veh C10orf10 (11716522_x_at) / RFU KIR2DL2 /// KIR2DL4 /// KIR2DL5A /// KIR2DL5B /// KIR2DS1 /// KIR2DS2 /// KIR2DS3 /// KIR2DS4 /// KIR3DL3 /// KIR3DL3 /// KIR3DS1 (11738374_at) / Fold change /veh KIR2DL2 /// KIR2DL4 /// KIR2DL5A /// KIR2DL5B /// KIR2DS1 /// KIR2DS2 /// KIR2DS3 /// KIR2DS4 /// KIR3DL3 /// KIR3DL3 /// KIR3DS1 (11738374_at) / RFU C1QL1 (11718748_at) / Fold change /veh C1QL1 (11718748_at) / RFU TMPRSS4 (11747572_a_at) / Fold change /veh TMPRSS4 (11747572_a_at) / RFU HAMP (11756126_x_at) / Fold change /veh HAMP (11756126_x_at) / RFU RNFT2 (11725882_a_at) / Fold change /veh RNFT2 (11725882_a_at) / RFU NR4A2 (11747474_a_at) / Fold change /veh NR4A2 (11747474_a_at) / RFU ABCC12 (11746883_a_at) / Fold change /veh ABCC12 (11746883_a_at) / RFU TMEM136 (11760407_x_at) / Fold change /veh TMEM136 (11760407_x_at) / RFU CLDN22 /// WWC2 (11732394_at) / Fold change /veh CLDN22 /// WWC2 (11732394_at) / RFU HLA-DPB1 (11760878_x_at) / Fold change /veh HLA-DPB1 (11760878_x_at) / RFU SPINT1 (11716480_a_at) / Fold change /veh SPINT1 (11716480_a_at) / RFU GAP43 (11754022_s_at) / Fold change /veh GAP43 (11754022_s_at) / RFU A4GNT (11735810_at) / Fold change /veh A4GNT (11735810_at) / RFU PRB3 (11715151_x_at) / Fold change /veh PRB3 (11715151_x_at) / RFU TUBB4B (11761932_at) / Fold change /veh TUBB4B (11761932_at) / RFU CAPN14 (11732068_a_at) / Fold change /veh CAPN14 (11732068_a_at) / RFU TMCC2 (11721928_a_at) / Fold change /veh TMCC2 (11721928_a_at) / RFU IRGQ (11745062_a_at) / Fold change /veh IRGQ (11745062_a_at) / RFU FAM174B (11720279_a_at) / Fold change /veh FAM174B (11720279_a_at) / RFU TMPRSS4 (11748680_a_at) / Fold change /veh TMPRSS4 (11748680_a_at) / RFU FAM212B (11763350_a_at) / Fold change /veh FAM212B (11763350_a_at) / RFU PLEKHG5 (11743358_a_at) / Fold change /veh PLEKHG5 (11743358_a_at) / RFU ZSCAN30 (11745921_a_at) / Fold change /veh ZSCAN30 (11745921_a_at) / RFU CMKLR1 (11741424_a_at) / Fold change /veh CMKLR1 (11741424_a_at) / RFU LOC101060620 /// MAPK8IP1 (11723275_at) / Fold change /veh LOC101060620 /// MAPK8IP1 (11723275_at) / RFU SPTSSB (11747773_x_at) / Fold change /veh SPTSSB (11747773_x_at) / RFU PRSS12 (11739890_at) / Fold change /veh PRSS12 (11739890_at) / RFU BIN1 (11741810_x_at) / Fold change /veh BIN1 (11741810_x_at) / RFU WNT11 (11732464_a_at) / Fold change /veh WNT11 (11732464_a_at) / RFU C10orf10 (11716521_a_at) / Fold change /veh C10orf10 (11716521_a_at) / RFU C5orf56 (11738089_at) / Fold change /veh C5orf56 (11738089_at) / RFU CYB561 (11721691_x_at) / Fold change /veh CYB561 (11721691_x_at) / RFU ANKRD19P (11752326_a_at) / Fold change /veh ANKRD19P (11752326_a_at) / RFU OR2T12 /// OR2T33 /// OR2T8 (11738714_s_at) / Fold change /veh OR2T12 /// OR2T33 /// OR2T8 (11738714_s_at) / RFU VCAN (11748164_a_at) / Fold change /veh VCAN (11748164_a_at) / RFU JSRP1 (11732532_at) / Fold change /veh JSRP1 (11732532_at) / RFU KRTAP10-11 (11738290_x_at) / Fold change /veh KRTAP10-11 (11738290_x_at) / RFU MYO3A (11730013_a_at) / Fold change /veh MYO3A (11730013_a_at) / RFU EBF3 (11725865_a_at) / Fold change /veh EBF3 (11725865_a_at) / RFU CAMK2N1 (11719241_x_at) / Fold change /veh CAMK2N1 (11719241_x_at) / RFU C5orf56 (11738088_a_at) / Fold change /veh C5orf56 (11738088_a_at) / RFU OLFML3 (11715873_a_at) / Fold change /veh OLFML3 (11715873_a_at) / RFU LOC100653217 /// NTM (11731650_a_at) / Fold change /veh LOC100653217 /// NTM (11731650_a_at) / RFU MAPK11 (11762145_a_at) / Fold change /veh MAPK11 (11762145_a_at) / RFU FIZ1 (11724087_x_at) / Fold change /veh FIZ1 (11724087_x_at) / RFU OASL (11726364_x_at) / Fold change /veh OASL (11726364_x_at) / RFU SOX15 (11748057_x_at) / Fold change /veh SOX15 (11748057_x_at) / RFU CD79A (11719716_a_at) / Fold change /veh CD79A (11719716_a_at) / RFU HIST1H1D (11736915_at) / Fold change /veh HIST1H1D (11736915_at) / RFU CASKIN2 (11723855_a_at) / Fold change /veh CASKIN2 (11723855_a_at) / RFU LOC730098 (11760151_x_at) / Fold change /veh LOC730098 (11760151_x_at) / RFU OR4N2 (11742367_at) / Fold change /veh OR4N2 (11742367_at) / RFU PRRT2 (11749266_a_at) / Fold change /veh PRRT2 (11749266_a_at) / RFU SNX32 (11753110_a_at) / Fold change /veh SNX32 (11753110_a_at) / RFU CDHR5 (11726645_a_at) / Fold change /veh CDHR5 (11726645_a_at) / RFU RCAN1 (11760418_a_at) / Fold change /veh RCAN1 (11760418_a_at) / RFU FAM167A (11723789_a_at) / Fold change /veh FAM167A (11723789_a_at) / RFU FAM26E (11764081_at) / Fold change /veh FAM26E (11764081_at) / RFU ISYNA1 (11749810_s_at) / Fold change /veh ISYNA1 (11749810_s_at) / RFU ACY1 (11761880_at) / Fold change /veh ACY1 (11761880_at) / RFU 11764098_at / Fold change /veh 11764098_at / RFU SAMD14 (11745864_x_at) / Fold change /veh SAMD14 (11745864_x_at) / RFU NPB (11741838_a_at) / Fold change /veh NPB (11741838_a_at) / RFU TMPRSS6 (11731388_a_at) / Fold change /veh TMPRSS6 (11731388_a_at) / RFU KRTAP10-2 (11738614_at) / Fold change /veh KRTAP10-2 (11738614_at) / RFU ARHGAP8 /// PRR5-ARHGAP8 (11727945_x_at) / Fold change /veh ARHGAP8 /// PRR5-ARHGAP8 (11727945_x_at) / RFU KRTAP5-7 /// NADSYN1 (11734609_at) / Fold change /veh KRTAP5-7 /// NADSYN1 (11734609_at) / RFU RASL12 (11751679_a_at) / Fold change /veh RASL12 (11751679_a_at) / RFU CDKN2B (11736163_a_at) / Fold change /veh CDKN2B (11736163_a_at) / RFU PRF1 (11729649_at) / Fold change /veh PRF1 (11729649_at) / RFU, ZNF638 /// ZNF638-IT1 / Fold change vs veh, ZNF638 /// ZNF638-IT1 / RFU, PANK3 / Fold change vs veh, PANK3 / RFU, SH3YL1 / Fold change vs veh, SH3YL1 / RFU, ZEB2 / Fold change vs veh, ZEB2 / RFU, NRIP1 / Fold change vs veh, NRIP1 / RFU, PTTG1IP / Fold change vs veh, PTTG1IP / RFU, CAPN2 / Fold change vs veh, CAPN2 / RFU, MED14 / Fold change vs veh, MED14 / RFU, SNORA58 / Fold change vs veh, SNORA58 / RFU, C1orf63 / Fold change vs veh, C1orf63 / RFU, LRRFIP1 / Fold change vs veh, LRRFIP1 / RFU, NDUFAF7 / Fold change vs veh, NDUFAF7 / RFU, SLC12A2 / Fold change vs veh, SLC12A2 / RFU, IBTK / Fold change vs veh, IBTK / RFU, ESF1 / Fold change vs veh, ESF1 / Fold change vs veh, TMEM50B / RFU, TAOK1 / Fold change vs veh, TAOK1 / RFU, ACBD3 / Fold change vs veh, ACBD3 / RFU, TMA16 / Fold change vs veh, TMA16 / RFU, RWDD3 / Fold change vs veh, RWDD3 / RFU, BCAT1 / Fold change vs veh, BCAT1 / RFU, EDEM3 / Fold change vs veh, EDEM3 / RFU, TMEM33 / Fold change vs veh, TMEM33 / RFU, WDR75 / Fold change vs veh, WDR75 / RFU, AHCTF1 / Fold change vs veh, AHCTF1 / RFU, TFRC / Fold change vs veh, TFRC / RFU, ZDHHC17 / Fold change vs veh, ZDHHC17 / RFU, NOM1 / Fold change vs veh, NOM1 / RFU, ARL8B / Fold change vs veh, ARL8B / RFU, ZBTB11 / Fold change vs veh, ZBTB11 / RFU, TAMM41 / Fold change vs veh, TAMM41 / RFU, KIAA1704 /// LOC100996395 / Fold change vs veh, KIAA1704 /// LOC100996395 / RFU, ING1 / Fold change vs veh, ING1 / RFU, TRMT61B / Fold change vs veh, TRMT61B / RFU, FUBP3 / Fold change vs veh, FUBP3 / RFU, TP53 / Fold change vs veh, TP53 / RFU, TNKS2 / Fold change vs veh, TNKS2 / RFU, ZFP14 / Fold change vs veh, ZFP14 / RFU, ACTR2 / Fold change vs veh, ACTR2 / RFU, PPP3R1 / Fold change vs veh, PPP3R1 / RFU, PIK3R1 / Fold change vs veh, PIK3R1 / RFU, HNRNPA1 / Fold change vs veh, HNRNPA1 / RFU, RNF170 / Fold change vs veh, RNF170 / RFU, ZNF28 / Fold change vs veh, ZNF28 / RFU, RNGTT / Fold change vs veh, RNGTT / RFU, OGT / Fold change vs veh, OGT / RFU, BRD1 / Fold change vs veh, BRD1 / RFU, MARS / Fold change vs veh, MARS / RFU, ZNF655 / Fold change vs veh, ZNF655 / RFU, FAHD1 / Fold change vs veh, FAHD1 / RFU, BDP1 / Fold change vs veh, BDP1 / RFU, LRRCC1 / Fold change vs veh, LRRCC1 / RFU, ARID1A / Fold change vs veh, ARID1A / RFU, ZNF146 / Fold change vs veh, ZNF146 / RFU, ZNF330 / Fold change vs veh, ZNF330 / RFU, GPN3 / Fold change vs veh, GPN3 / RFU, C9orf123 / Fold change vs veh, C9orf123 / RFU, N4BP2L2 / Fold change vs veh, N4BP2L2 / RFU, ARFIP1 / Fold change vs veh, ARFIP1 / RFU, FAM179B / Fold change vs veh, FAM179B / RFU, BCL10 / Fold change vs veh, BCL10 / RFU, UHRF1BP1L / Fold change vs veh, UHRF1BP1L / RFU, BET1 / Fold change vs veh, BET1 / RFU, CNOT2 / Fold change vs veh, CNOT2 / RFU, ZNF268 / Fold change vs veh, ZNF268 / Fold change vs veh, ZNF507 / RFU, DGCR2 / Fold change vs veh, DGCR2 / RFU, WDSUB1 / Fold change vs veh, WDSUB1 / Fold change vs veh, HSP90B1 /// MIR3652 / RFU, ADSS / Fold change vs veh, ADSS / RFU, GK / Fold change vs veh, GK / RFU, ZNF148 / Fold change vs veh, ZNF148 / RFU, TAF9 / Fold change vs veh, TAF9 / RFU, SLC1A5 / Fold change vs veh, SLC1A5 / RFU, SLMO2 / Fold change vs veh, SLMO2 / RFU, ABCC4 / Fold change vs veh, ABCC4 / RFU, LOC101060439 /// RAP1B / Fold change vs veh, LOC101060439 /// RAP1B / RFU, RFX7 / Fold change vs veh, RFX7 / RFU, GTPBP10 / Fold change vs veh, GTPBP10 / RFU, CNEP1R1 / Fold change vs veh, CNEP1R1 / RFU, BIVM-ERCC5 /// ERCC5 / Fold change vs veh, BIVM-ERCC5 /// ERCC5 / RFU, ILF3 / Fold change vs veh, ILF3 / RFU 11762660_at / Fold change /veh 11762660_at / RFU VCAN (11757783_s_at) / Fold change /veh VCAN (11757783_s_at) / RFU DDX43 (11728927_at) / Fold change /veh DDX43 (11728927_at) / RFU KRT8 (11758188_x_at) / Fold change /veh KRT8 (11758188_x_at) / RFU NKD1 (11759106_at) / Fold change /veh NKD1 (11759106_at) / RFU SRD5A1 (11742802_a_at) / Fold change /veh SRD5A1 (11742802_a_at) / RFU TPSAB1 /// TPSB2 (11721975_s_at) / Fold change /veh TPSAB1 /// TPSB2 (11721975_s_at) / RFU GSTM3 (11746129_a_at) / Fold change /veh GSTM3 (11746129_a_at) / RFU IL23R (11737362_x_at) / Fold change /veh IL23R (11737362_x_at) / RFU TMEM51 (11727254_a_at) / Fold change /veh TMEM51 (11727254_a_at) / RFU PIWIL2 (11732686_x_at) / Fold change /veh PIWIL2 (11732686_x_at) / RFU ORM1 (11744905_x_at) / Fold change /veh ORM1 (11744905_x_at) / RFU CCDC152 (11743942_at) / Fold change /veh CCDC152 (11743942_at) / RFU ECM1 (11717891_a_at) / Fold change /veh ECM1 (11717891_a_at) / RFU IL23R (11748794_a_at) / Fold change /veh IL23R (11748794_a_at) / RFU TNFAIP8L3 (11732012_x_at) / Fold change /veh TNFAIP8L3 (11732012_x_at) / RFU MBOAT4 (11741988_at) / Fold change /veh MBOAT4 (11741988_at) / RFU 11764193_at / Fold change /veh 11764193_at / RFU TMEM53 (11763286_at) / Fold change /veh TMEM53 (11763286_at) / RFU MAGEB2 (11727129_at) / Fold change /veh MAGEB2 (11727129_at) / RFU TMEM200A (11744735_a_at) / Fold change /veh TMEM200A (11744735_a_at) / RFU CCDC152 (11751479_a_at) / Fold change /veh CCDC152 (11751479_a_at) / RFU FAM211A (11726209_a_at) / Fold change /veh FAM211A (11726209_a_at) / RFU RGS16 (11746705_a_at) / Fold change /veh RGS16 (11746705_a_at) / RFU VCAN (11755009_s_at) / Fold change /veh VCAN (11755009_s_at) / RFU RHOB (11743442_s_at) / Fold change /veh RHOB (11743442_s_at) / RFU RGS16 (11720943_a_at) / Fold change /veh RGS16 (11720943_a_at) / RFU RGS16 (11720944_at) / Fold change /veh RGS16 (11720944_at) / RFU, VPS4B / Fold change vs veh, VPS4B / RFU, CREB1 / Fold change vs veh, CREB1 / RFU, DNAJC13 / Fold change vs veh, DNAJC13 / RFU, GNAQ / Fold change vs veh, GNAQ / RFU, CDK5R1 / Fold change vs veh, CDK5R1 / RFU, ZRANB3 / Fold change vs veh, ZRANB3 / RFU, CUL4A / Fold change vs veh, CUL4A / RFU, CCNY / Fold change vs veh, CCNY / RFU, UFL1 / Fold change vs veh, UFL1 / RFU, COG3 / Fold change vs veh, COG3 / RFU, DIAPH2 / Fold change vs veh, DIAPH2 / RFU, SKA2 / Fold change vs veh, SKA2 / RFU, AFF3 / Fold change vs veh, AFF3 / RFU, LMF1 / Fold change vs veh, LMF1 / RFU, IPO11 / Fold change vs veh, IPO11 / RFU, DFFB / Fold change vs veh, DFFB / RFU, FOXP1 / Fold change vs veh, FOXP1 / RFU, CARD8 / Fold change vs veh, CARD8 / RFU, STRN3 / Fold change vs veh, STRN3 / RFU, ADK / Fold change vs veh, ADK / RFU, RASSF2 / Fold change vs veh, RASSF2 / RFU, WIPF1 / Fold change vs veh, WIPF1 / RFU, LARP1B / Fold change vs veh, LARP1B / RFU, RASA1 / Fold change vs veh, RASA1 / RFU, RB1 / Fold change vs veh, RB1 / RFU, PPFIA1 / Fold change vs veh, PPFIA1 / RFU, MAT2A / Fold change vs veh, MAT2A / RFU, CCT5 / Fold change vs veh, CCT5 / RFU, WDR92 / Fold change vs veh, WDR92 / RFU, CUX1 / Fold change vs veh, CUX1 / RFU, TTC7A / Fold change vs veh, TTC7A / RFU, TMEM135 / Fold change vs veh, TMEM135 / RFU, DEPTOR / Fold change vs veh, DEPTOR / RFU, CPM / Fold change vs veh, CPM / RFU, DNAJB6 / Fold change vs veh, DNAJB6 / RFU, CACNA2D3 / Fold change vs veh, CACNA2D3 / RFU, DTX4 / Fold change vs veh, DTX4 / RFU, TFCP2 / Fold change vs veh, TFCP2 / RFU, GMCL1 /// GMCL1P1 / Fold change vs veh, GMCL1 /// GMCL1P1 / RFU, AEBP2 / Fold change vs veh, AEBP2 / RFU, SNHG1 /// SNORD22 /// SNORD25 /// SNORD26 /// SNORD27 /// SNORD28 /// SNORD29 /// SNORD31 / Fold change vs veh, SNHG1 /// SNORD22 /// SNORD25 /// SNORD26 /// SNORD27 /// SNORD28 /// SNORD29 /// SNORD31 / Fold change (Aza/veh), C12orf56 (ProbeSet 11735607_a_at) / Fold change (ACY-1035/veh), C12orf56 (ProbeSet 11735607_a_at) / Fold change (Aza/veh), FGFR1OP (ProbeSet 11751329_s_at) / Fold change (ACY-1035/veh), FGFR1OP (ProbeSet 11751329_s_at) / Fold change (Aza/veh), VPS36 (ProbeSet 11739960_a_at) / Fold change (ACY-1035/veh), VPS36 (ProbeSet 11739960_a_at) / RFU SYPL1 (11715823_x_at) / Fold change /veh SYPL1 (11715823_x_at) / RFU IGFBP7 (11715501_s_at) / Fold change /veh IGFBP7 (11715501_s_at) / RFU REEP3 (11722064_at) / Fold change /veh REEP3 (11722064_at) / RFU IGLL1 (11728026_x_at) / Fold change /veh IGLL1 (11728026_x_at): dose or concentration left out as unconfirmed
Conditions: ProbeSet 11743929_at; LIST B

Nc1ncn([C@@H]2O[C@H](CO)[C@@H](O)[C@H]2O)c(=O)n1 [azacitidine]
RFU, UHRF1BP1L: 257.64 RFU
